Values quoted from earlier work in patent EP1782809A1, “Use of ligands of PPARGamma for inducing foetal lung maturity and the prevention of the respiratory-distress syndrome in premature infants” (Charité-Universitätsmedizin Berlin, priority 2005, dated 2007).
Read-outs that look alike come from different tables or passages of the source.

Key:
[1] = rabbits; 20 or 75-fold of the maximal recommended human dosage
[2] = not given; remark: listed apart in the source

CN(CCOc1ccc(CC2SC(=O)NC2=O)cc1)c1ccccn1 (stereo not shown) [rosiglitazone]
foetal growth (late pregnancy, at this dose (20 or 75-fold of human dosage), species not stated in the sentence (rats or rabbits) [26]): can slow down the foetal growth | effect on the implantation or embryogenesis (rats): no effect | teratogenic effect (rats, 20 or 75-fold of the maximal recommended human dosage): no teratogenic effect | teratogenic effect [1]: no teratogenic effect | incidence of elevated transaminases ([2]; controlled clinical studies, compared to the placebo group [19]): similar

Cc1c(C)c2c(c(C)c1O)CCC(C)(COc1ccc(CC3SC(=O)NC3=O)cc1)O2 (stereo not shown) [troglitazone]
incidence of elevated transaminases ([2]; human, in vivo): triplicated

CCc1ccc(CCOc2ccc(CC3SC(=O)NC3=O)cc2)nc1 (stereo not shown) [pioglitazone]
incidence of elevated transaminases ([2]; human, in vivo): similar
